This note sets out measurements from US20250388553A1 (Incyte Corporation, priority 2018, published 2025).

pIC50: −log10 of the molar value. Where a name gives a salt, the structure may show the parent alone. Read-outs that look alike come from different tables or passages of the source.

In assay [1] the target is PI3Kγ (p110γ) Recombinant Human Protein (Homo sapiens (Human), UniProt P48736). The experiment in a line: PI3K-γ scintillation proximity assay. The class given is biochemical. For orientation: Scintillation proximity formats need no separation of bound from free tracer.
Chain of PI3Kγ (p110γ) Recombinant Human Protein (P48736 whole entry): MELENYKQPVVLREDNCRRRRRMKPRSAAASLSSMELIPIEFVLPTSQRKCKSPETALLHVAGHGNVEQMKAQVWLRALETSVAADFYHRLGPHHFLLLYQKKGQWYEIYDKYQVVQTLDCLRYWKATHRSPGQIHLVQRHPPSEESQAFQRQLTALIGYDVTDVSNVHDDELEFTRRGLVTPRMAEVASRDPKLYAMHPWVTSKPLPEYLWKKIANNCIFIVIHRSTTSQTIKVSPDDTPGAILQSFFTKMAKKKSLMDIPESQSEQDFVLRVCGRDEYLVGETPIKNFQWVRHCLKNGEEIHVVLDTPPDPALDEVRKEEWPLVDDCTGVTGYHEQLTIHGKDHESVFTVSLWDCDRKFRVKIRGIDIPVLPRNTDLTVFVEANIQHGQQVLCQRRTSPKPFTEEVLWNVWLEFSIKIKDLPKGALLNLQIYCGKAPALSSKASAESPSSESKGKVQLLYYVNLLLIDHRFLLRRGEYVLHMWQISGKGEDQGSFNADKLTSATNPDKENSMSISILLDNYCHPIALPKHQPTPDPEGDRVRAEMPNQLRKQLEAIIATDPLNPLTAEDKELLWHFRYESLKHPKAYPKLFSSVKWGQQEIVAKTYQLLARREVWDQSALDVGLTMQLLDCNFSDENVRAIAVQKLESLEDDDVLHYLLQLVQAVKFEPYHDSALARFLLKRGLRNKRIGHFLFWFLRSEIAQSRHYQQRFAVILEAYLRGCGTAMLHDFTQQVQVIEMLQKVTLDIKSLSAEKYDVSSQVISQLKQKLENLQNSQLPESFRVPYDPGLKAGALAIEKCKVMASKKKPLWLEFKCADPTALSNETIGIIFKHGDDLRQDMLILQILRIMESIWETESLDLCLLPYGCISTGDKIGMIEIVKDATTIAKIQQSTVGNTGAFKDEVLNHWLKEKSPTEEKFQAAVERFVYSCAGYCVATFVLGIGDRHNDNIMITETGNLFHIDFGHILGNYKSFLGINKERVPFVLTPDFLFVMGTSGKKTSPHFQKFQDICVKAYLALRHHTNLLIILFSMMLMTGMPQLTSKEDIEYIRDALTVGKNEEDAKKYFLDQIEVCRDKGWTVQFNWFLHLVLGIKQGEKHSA
The target in assay [2] is PI3Kδ (p1106/p85a) Recombinant Human Protein (Homo sapiens (Human), UniProt O00329). The experiment in a line: PI3Kδ scintillation proximity assay. Format: biochemical.
Chain of PI3Kδ (p1106/p85a) Recombinant Human Protein (O00329 whole entry): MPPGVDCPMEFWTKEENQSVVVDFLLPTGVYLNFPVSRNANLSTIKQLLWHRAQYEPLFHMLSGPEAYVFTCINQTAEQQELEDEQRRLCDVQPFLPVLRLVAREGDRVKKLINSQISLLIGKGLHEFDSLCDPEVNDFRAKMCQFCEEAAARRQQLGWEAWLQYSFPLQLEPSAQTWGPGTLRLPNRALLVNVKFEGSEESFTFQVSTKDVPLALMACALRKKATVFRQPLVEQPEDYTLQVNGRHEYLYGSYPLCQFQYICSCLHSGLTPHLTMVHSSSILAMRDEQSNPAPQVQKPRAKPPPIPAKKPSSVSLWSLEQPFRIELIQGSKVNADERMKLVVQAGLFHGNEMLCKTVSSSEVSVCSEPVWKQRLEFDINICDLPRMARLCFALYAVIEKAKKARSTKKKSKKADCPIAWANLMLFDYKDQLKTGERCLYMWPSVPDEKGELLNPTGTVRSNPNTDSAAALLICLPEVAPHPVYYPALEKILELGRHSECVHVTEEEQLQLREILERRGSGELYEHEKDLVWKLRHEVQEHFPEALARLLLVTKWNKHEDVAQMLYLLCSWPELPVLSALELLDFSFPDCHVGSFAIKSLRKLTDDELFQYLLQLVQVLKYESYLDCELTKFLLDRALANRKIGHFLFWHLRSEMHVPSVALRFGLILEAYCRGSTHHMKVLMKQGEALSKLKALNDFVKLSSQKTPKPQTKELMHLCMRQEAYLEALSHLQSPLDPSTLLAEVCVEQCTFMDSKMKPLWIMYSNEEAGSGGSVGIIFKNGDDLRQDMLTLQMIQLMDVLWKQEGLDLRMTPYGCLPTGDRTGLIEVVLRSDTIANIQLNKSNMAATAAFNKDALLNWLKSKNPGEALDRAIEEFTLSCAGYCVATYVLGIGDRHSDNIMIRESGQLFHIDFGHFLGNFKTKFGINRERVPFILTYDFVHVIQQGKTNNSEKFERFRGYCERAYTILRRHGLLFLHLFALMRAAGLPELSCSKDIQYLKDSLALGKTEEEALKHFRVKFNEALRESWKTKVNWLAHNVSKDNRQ
Chain of PI3Kδ (p1106/p85a) Recombinant Human Protein (P27986 whole entry partner): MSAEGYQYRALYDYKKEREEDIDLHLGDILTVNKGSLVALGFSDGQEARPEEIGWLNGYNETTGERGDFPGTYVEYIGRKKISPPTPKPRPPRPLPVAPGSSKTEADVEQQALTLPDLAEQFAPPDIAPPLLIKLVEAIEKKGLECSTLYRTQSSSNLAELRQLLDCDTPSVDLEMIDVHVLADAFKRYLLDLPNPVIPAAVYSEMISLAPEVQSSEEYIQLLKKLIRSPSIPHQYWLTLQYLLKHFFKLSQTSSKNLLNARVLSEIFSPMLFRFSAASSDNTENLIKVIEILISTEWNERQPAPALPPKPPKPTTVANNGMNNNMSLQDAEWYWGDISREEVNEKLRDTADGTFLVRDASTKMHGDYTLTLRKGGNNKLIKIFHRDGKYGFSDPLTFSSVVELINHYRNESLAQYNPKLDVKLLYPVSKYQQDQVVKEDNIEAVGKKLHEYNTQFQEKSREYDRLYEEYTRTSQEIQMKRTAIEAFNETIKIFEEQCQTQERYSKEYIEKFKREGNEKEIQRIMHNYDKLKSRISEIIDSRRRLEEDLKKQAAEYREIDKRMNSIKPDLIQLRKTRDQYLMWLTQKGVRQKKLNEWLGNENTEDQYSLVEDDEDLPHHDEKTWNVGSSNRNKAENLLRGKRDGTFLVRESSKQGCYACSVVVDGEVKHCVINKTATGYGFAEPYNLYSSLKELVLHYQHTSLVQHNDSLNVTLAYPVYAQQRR
Assay [3] has as its system Phosphorylated Ribosomal Protein S6 (RPS6) in THP-1 cells. The experiment in a line: THP-1 RPS6 ELISA assay. Format: cell-based, Human. To be noted: THP-1 cells, 10 nM MCP-1, phospho-RPS6 ELISA, read-out: PI3Kγ_THP1_RPS6_ELISA IC50. An excerpt: Example A. THP-1 RPS6 ELISA Assay
To measure the Phosphorylated Ribosomal Protein S6 (RPS6) in cell lysates, THP-1 cells (Human Acute Monocytic Leukemia) are purchased from ATCC (Manassas, VA) and maintained in RPMI with 10% FBS (Gibco/Life Technologies, Carlsbad, CA). For the assay, THP-1 cells are serum starved overnight in RPMI, then plated in RPMI (2×10^5 cells/well in […]) into 96-well flat-bottom tissue culture treated plates (Corning, Corning, NY), in the presence or absence of a concentration range of test compounds. Covered plates are incubated for 2 hours at 37° C., 5% CO2 then treated with or without 10 nM MCP-1(MYBioSource, San Diego, CA) for 15 minutes at 37° C., 5% CO2. Plates are centrifuged at 1600 RPM and supernatants are removed. Cells are lysed in Lysis Buffer (Cell Signaling, Danvers, MA) with Protease Inhibitor (Calbiochem/EMD, Germany), PMSF (Sigma, St Louis MO), HALTS (Thermo Fisher, Rockford, IL) for 30 min on wet ice. Cell lysates are frozen at −80° C. before testing. The lysates are tested in the Human/Mouse/Rat Phospho-RPS6 ELISA (R&D Systems, Inc. Minn, MN). The plate is measured using a microplate reader (SpectraMax M5—Molecular Devices, LLC Sunnyvale, CA) set to 450 nm with a wavelength correction of 540. IC50 determination is performed by fitting the curve of inhibitor percent inhibition versus the log of the inhibitor concentration using the GraphPad Prism 5.0 software.
The compounds of the Examples were tested in the assays described in Examples A, B and C and found to have the IC50s are shown in Tables A1, A2, A3 and A4.
A general note: ELISA stands for enzyme-linked immunosorbent assay.

The mark [4] stands for this setting: Table A3, scintillation proximity assay, recombinant human p110γ.
[5] abbreviates: Table A3, scintillation proximity assay, recombinant human PI3Kδ.
The mark [6] stands for this setting: Table A4, scintillation proximity assay, recombinant human p110γ.
Setting [7] is: Table A4, scintillation proximity assay, recombinant human PI3Kδ.

What is called pIC50 is the IC50 on a negative log10 scale, so that one unit is a factor of ten. Take `Cc1ccc(C(O)(C(N)=O)C(F)(F)F)cc1-c1cnc(N)c(-c2cnc(C3CC3)s2)n1` (stereo not shown) [Example 84, 2-(3-(5-amino-6-(2-cyclopropylthiazol-5-yl)pyrazin-2-yl)-4-methylphenyl)-3,3,3-trifluoro-2-hydroxypropanamide trifluoroacetate]: the pIC50 in assay [1] (setting [4]) is above 7.00; in assay [2] (setting [5]) it was above 7.00; in assay [3] (Homo sapiens, Table A3) it was 6.30 to 7.00.

`Cc1ccc(C(O)(C(N)=O)C(F)(F)F)cc1-c1cnc(N)c(-c2cnn(CC3(C#N)CC3)c2)n1` (stereo not shown) [Example 78, 2-(3-(5-amino-6-(1-((1-cyanocyclopropyl)methyl)-1H-pyrazol-4-yl)pyrazin-2-yl)-4-methylphenyl)-3,3,3-trifluoro-2-hydroxypropanamide trifluoroacetate]: the negative logarithm of the IC50 (pIC50) in assay [1] was above 7.00; in assay [2], above 7.00; in assay [3] (Homo sapiens, Table A3) it was above 7.00.

As for `Cc1ccc(C(O)(C(N)=O)C(F)(F)F)cc1-c1cnc(N)c(N2CCN(C3CC3)C(=O)C2)n1` (stereo not shown) [Example 112, 2-(3-(5-amino-6-(4-cyclopropyl-3-oxopiperazin-1-yl)pyrazin-2-yl)-4-methylphenyl)-3,3,3-trifluoro-2-hydroxypropanamide Trifluoroacetate], the pIC50 in assay [1] (setting [6]) was above 7.00; in assay [2] (setting [7]), 6.30 to 7.00; in assay [3] (Homo sapiens, Table A4), 6.30 to 7.00.

As for `Cc1ccc(C(O)(C(N)=O)C(F)(F)F)cc1-c1cnc(N)c(N2CCN(c3ccccc3C)CC2)n1` (stereo not shown) [Example 118, 2-(3-(5-amino-6-(4-o-tolylpiperazin-1-yl)pyrazin-2-yl)-4-methylphenyl)-3,3,3-trifluoro-2-hydroxypropanamide trifluoroacetate], the pIC50 in assay [1] (setting [6]) was above 7.00; in assay [2] (setting [7]), 6.30 to 7.00; in assay [3] (Homo sapiens, Table A4), 6.00 to 6.30.

For the compound `Cc1ccc(C(O)(C(N)=O)C(F)(F)F)cc1-c1cnc(N)c(C(=O)N[C@H]2CC[C@@](O)(C(F)(F)F)CC2)n1` (stereo partly shown) [Example 18, 3-amino-6-(5-(3-amino-1,1,1-trifluoro-2-hydroxy-3-oxopropan-2-yl)-2-methylphenyl)-N-((1r,4r)-4-hydroxy-4-(trifluoromethyl)cyclohexyl)pyrazine-2-carboxamide trifluoroacetate], the pIC50 is above 7.00 in assay [1] (Table A1, scintillation proximity assay, recombinant human p110γ); above 7.00 in assay [2] (Table A1, scintillation proximity assay, recombinant human PI3Kδ); above 7.00 in assay [3] (Table A1).

On to `Cc1ccc(-c2nc(-c3cc(C(O)(C(N)=O)C(F)(F)F)ccc3C)cnc2N)cn1` (stereo not shown) [Example 82, 2-(3-(5-amino-6-(6-methylpyridin-3-yl)pyrazin-2-yl)-4-methylphenyl)-3,3,3-trifluoro-2-hydroxypropanamide bistrifluoroacetate], for which the pIC50 in assay [1] (setting [4]) is above 7.00; in assay [2] (setting [5]), above 7.00; in assay [3] (Homo sapiens, Table A3) it was 6.30 to 7.00.

Consider `Cc1ncc(-c2nc(-c3cc(C(O)(C(N)=O)C(F)(F)F)ccc3C)cnc2N)s1` (stereo not shown) [Example 72, 2-(3-(5-amino-6-(2-methylthiazol-5-yl)pyrazin-2-yl)-4-methylphenyl)-3,3,3-trifluoro-2-hydroxypropanamide trifluoroacetate], for which, in assay [3] (Homo sapiens, Table A3), the pIC50 is above 7.00.

With `CCOC(=O)C1CC(c2nc(-c3cc(C(O)(C(N)=O)C(F)(F)F)ccc3C)cnc2N)C1` (single isomer, unassigned) [Example 109, Ethyl 3-(3-amino-6-(5-(3-amino-1,1,1-trifluoro-2-hydroxy-3-oxopropan-2-yl)-2-methylphenyl)pyrazin-2-yl)cyclobutane-1-carboxylate], the pIC50 was 6.30 to 7.00 in assay [2] (setting [7]) and below 6.00 in assay [3] (Table A4).

Turning to `Cc1ccc(C(O)(C(N)=O)C(F)(F)F)cc1-c1cnc(N)c(C2CN(S(=O)(=O)c3cnn(C)c3)C2)n1` (single isomer, unassigned) [Example 107, 2-(3-(5-Amino-6-(1-((1-methyl-1H-pyrazol-4-yl)sulfonyl)azetidin-3-yl)pyrazin-2-yl)-4-methylphenyl)-3,3,3-trifluoro-2-hydroxypropanamide, trifluoroacetate Salt], the pIC50 in assay [3] (Homo sapiens, Table A4) is 6.00 to 6.30.
